Reference: PubChem BioAssay AID248 (DTP/NCI, 2004)
Values joined by “and” are separate entries in the source; they are usually repeats but may differ in a detail not shown here. Equal entries are not always repeated. Toxic doses and inconclusive results are not listed. Rule as the data show it: active = T/C of 150% or more; inactive = T/C below 125%.

System: L1210 leukemia ip in BDF1 mice, survival T/C
Experiment: NCI In Vivo Anticancer Drug Screen. Data for tumor model L1210 Leukemia (intraperitoneal) in B6D2F1 (BDF1) mice
Details: endpoint: mean survival time, higher = longer survival
Procedure, shortened: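 Mice bearing the transplanted tumor received compound or vehicle. Survival of the treated group was divided by that of the vehicle-treated control group to give the ratio.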

[1] = dose: 100.0 mg/kg/injection, schedule: Q04DX002 (ip), vehicle: Klucel (hydroxypropylcellulose) (HPC)
[2] = dose: 200.0 mg/kg/injection, schedule: Q04DX002 (ip), vehicle: Klucel (hydroxypropylcellulose) (HPC)
[3] = dose: 400.0 mg/kg/injection, schedule: Q04DX002 (ip), vehicle: Klucel (hydroxypropylcellulose) (HPC)
[4] = dose: 50.0 mg/kg/injection, schedule: Q01DX009 (ip), vehicle: saline
[5] = dose: 100.0 mg/kg/injection, schedule: Q01DX009 (ip), vehicle: saline
[6] = dose: 100.0 mg/kg/injection, schedule: Q01DX009 (ip), vehicle: saline with Tween-80
[7] = dose: 200.0 mg/kg/injection, schedule: Q01DX009 (ip), vehicle: saline with Tween-80
[8] = dose: 400.0 mg/kg/injection, schedule: Q01DX009 (ip), vehicle: saline with Tween-80
[9] = dose: 100.0 mg/kg/injection, schedule: Q04DX003 (ip), vehicle: Klucel (hydroxypropylcellulose) (HPC)
[10] = dose: 200.0 mg/kg/injection, schedule: Q01DX009 (ip), vehicle: Klucel (hydroxypropylcellulose) (HPC)
[11] = dose: 200.0 mg/kg/injection, schedule: Q04DX003 (ip), vehicle: Klucel (hydroxypropylcellulose) (HPC)
[12] = dose: 400.0 mg/kg/injection, schedule: Q01DX009 (ip), vehicle: Klucel (hydroxypropylcellulose) (HPC)
[13] = dose: 400.0 mg/kg/injection, schedule: Q04DX003 (ip), vehicle: Klucel (hydroxypropylcellulose) (HPC)
[14] = dose: 100.0 mg/kg/injection, schedule: Q04DX003 (ip), vehicle: saline
[15] = dose: 100.0 mg/kg/injection, schedule: Q01DX001 (ip), vehicle: saline with Tween-80
[16] = dose: 200.0 mg/kg/injection, schedule: Q01DX001 (ip), vehicle: saline with Tween-80
[17] = dose: 100.0 mg/kg/injection, schedule: Q01DX009 (ip), vehicle: Klucel (hydroxypropylcellulose) (HPC)

Measured: T/C

CC1(C)CC(=O)C2C(C1)Nc1ccccc1NC2c1ccccc1[N+](=O)[O-] (stereo unspecified)
inactive: [1] 103 % of control and 110 % of control | [2] 98 % of control and 92 % of control | [3] 95 % of control

Cn1c(CN(CCCl)CCCl)nc2c1c(=O)[nH]c(=O)n2C
inactive: dose: 50.0 mg/kg/injection, schedule: Q01DX001 (ip), vehicle: carboxymethylcellulose (CMC) 108 % of control | dose: 100.0 mg/kg/injection, schedule: Q01DX001 (ip), vehicle: carboxymethylcellulose (CMC) 102 % of control | dose: 178.0 mg/kg/injection, schedule: Q01DX001 (ip), vehicle: carboxymethylcellulose (CMC) 109 % of control | dose: 200.0 mg/kg/injection, schedule: Q01DX001 (ip), vehicle: carboxymethylcellulose (CMC) 119 % of control | dose: 267.0 mg/kg/injection, schedule: Q01DX001 (ip), vehicle: carboxymethylcellulose (CMC) 111 % of control and 116 % of control | dose: 400.0 mg/kg/injection, schedule: Q01DX001 (ip), vehicle: carboxymethylcellulose (CMC) 93 % of control | dose: 600.0 mg/kg/injection, schedule: Q01DX001 (ip), vehicle: carboxymethylcellulose (CMC) 90 % of control

NC(=S)N/N=C/c1ccc(Cl)cc1
inactive: dose: 25.0 mg/kg/injection, schedule: Q01DX009 (ip), vehicle: Klucel (hydroxypropylcellulose) (HPC) 103 % of control | dose: 50.0 mg/kg/injection, schedule: Q01DX009 (ip), vehicle: Klucel (hydroxypropylcellulose) (HPC) 101 % of control

O=[N+]([O-])c1ccc(-[n+]2ccccc2)c([N+](=O)[O-])c1
inactive: dose: 18.75 mg/kg/injection, schedule: Q01DX009 (ip), vehicle: saline 105 % of control | dose: 25.0 mg/kg/injection, schedule: Q01DX009 (ip), vehicle: saline 105 % of control | dose: 37.5 mg/kg/injection, schedule: Q01DX009 (ip), vehicle: saline 103 % of control | [4] 103 % of control | dose: 75.0 mg/kg/injection, schedule: Q01DX009 (ip), vehicle: saline 102 % of control | [5] 102 % of control | dose: 150.0 mg/kg/injection, schedule: Q01DX009 (ip), vehicle: saline 112 % of control

O=[N+]([O-])NC(=NCCNc1ccccc1)Nc1ccccc1
inactive: dose: 100.0 mg/kg/injection, schedule: Q04DX002 (ip), vehicle: gum acacia 98 % of control | dose: 200.0 mg/kg/injection, schedule: Q04DX002 (ip), vehicle: gum acacia 98 % of control | dose: 400.0 mg/kg/injection, schedule: Q04DX002 (ip), vehicle: gum acacia 88 % of control

Cc1ccc(Cl)cc1NC(=O)Oc1ccccc1C(=O)OCc1ccccc1
inactive: [6] 97 % of control | [7] 100 % of control | [8] 94 % of control

CN(CCOc1ccccc1O)CCOc1ccccc1O
inactive: [9] 105 % of control | [10] 101 % of control | [11] 106 % of control | [12] 86 % of control | [13] 101 % of control

CCC(C)C(C(=O)OC1CCN(C)CC1)c1ccccc1 (stereo unspecified)
inactive: dose: 25.0 mg/kg/injection, schedule: Q04DX003 (ip), vehicle: saline 102 % of control | [4] 105 % of control | dose: 50.0 mg/kg/injection, schedule: Q04DX003 (ip), vehicle: saline 96 % of control | [5] 98 % of control | [14] 97 % of control and 108 % of control

COc1ccc(OC)c(NC(=O)Nc2cccc(Cl)c2Cl)c1
inactive: [9] 86 % of control | [11] 90 % of control | [13] 88 % of control

CCCCCCC(=O)CCCC
inactive: [6] 102 % of control | [14] 98 % of control | [7] 111 % of control | dose: 200.0 mg/kg/injection, schedule: Q04DX003 (ip), vehicle: saline 88 % of control | [8] 98 % of control | dose: 400.0 mg/kg/injection, schedule: Q04DX003 (ip), vehicle: saline 94 % of control

Nc1cc2ncccc2c2ncccc12
inactive: dose: 75.0 mg/kg/injection, schedule: Q01DX001 (ip), vehicle: saline 107 % of control | dose: 150.0 mg/kg/injection, schedule: Q01DX001 (ip), vehicle: saline 102 % of control

Cc1ccc(C)c(Cl)c1
inactive: dose: 50.0 mg/kg/injection, schedule: Q01DX001 (ip), vehicle: saline with Tween-80 95 % of control | dose: 50.0 mg/kg/injection, schedule: Q04DX003 (ip), vehicle: saline with Tween-80 101 % of control | [15] 97 % of control | dose: 100.0 mg/kg/injection, schedule: Q04DX003 (ip), vehicle: saline with Tween-80 100 % of control | [16] 97 % of control | dose: 200.0 mg/kg/injection, schedule: Q04DX003 (ip), vehicle: saline with Tween-80 97 % of control

Cc1ccc(C(O)c2cnc(C)n2Cc2ccccc2)cc1 (stereo unspecified)
inactive: dose: 100.0 mg/kg/injection, schedule: Q01DX009 (ip), vehicle: carboxymethylcellulose (CMC) 96 % of control | [1] 94 % of control | dose: 100.0 mg/kg/injection, schedule: Q04DX002 (ip), vehicle: carboxymethylcellulose (CMC) 94 % of control and 112 % of control | dose: 100.0 mg/kg/injection, schedule: Q04DX003 (ip), vehicle: carboxymethylcellulose (CMC) 107 % of control | dose: 200.0 mg/kg/injection, schedule: Q01DX009 (ip), vehicle: carboxymethylcellulose (CMC) 100 % of control and 107 % of control | [2] 109 % of control | dose: 200.0 mg/kg/injection, schedule: Q04DX002 (ip), vehicle: carboxymethylcellulose (CMC) 94 % of control and 98 % of control | dose: 200.0 mg/kg/injection, schedule: Q04DX003 (ip), vehicle: carboxymethylcellulose (CMC) 92 % of control | dose: 400.0 mg/kg/injection, schedule: Q01DX009 (ip), vehicle: carboxymethylcellulose (CMC) 96 % of control and 86 % of control | [3] 88 % of control | dose: 400.0 mg/kg/injection, schedule: Q04DX002 (ip), vehicle: carboxymethylcellulose (CMC) 94 % of control and 95 % of control | dose: 400.0 mg/kg/injection, schedule: Q04DX003 (ip), vehicle: carboxymethylcellulose (CMC) 96 % of control

O=C(N/N=C/c1ccccc1O)C(O)C(O)C(O)C(O)CO (stereo unspecified)
inactive: dose: 100.0 mg/kg/injection, schedule: Q04DX002 (ip), vehicle: saline with Tween-80 92 % of control | dose: 200.0 mg/kg/injection, schedule: Q04DX002 (ip), vehicle: saline with Tween-80 106 % of control | dose: 400.0 mg/kg/injection, schedule: Q04DX002 (ip), vehicle: saline with Tween-80 95 % of control

CCOP(=O)(OCC)Oc1ccc([N+](=O)[O-])c(CC)c1
inactive: dose: 5.0 mg/kg/injection, schedule: Q01DX001 (ip), vehicle: saline 100 % of control | dose: 10.0 mg/kg/injection, schedule: Q01DX001 (ip), vehicle: saline 100 % of control

CN(C)N=Nc1ccccc1Cl
inactive: dose: 25.0 mg/kg/injection, schedule: Q01DX009 (ip), vehicle: saline with Tween-80 106 % of control | dose: 50.0 mg/kg/injection, schedule: Q01DX009 (ip), vehicle: saline with Tween-80 120 % of control | dose: 50.0 mg/kg/injection, schedule: Q04DX003 (ip), vehicle: Klucel (hydroxypropylcellulose) (HPC) 97 % of control | [17] 95 % of control | [6] 123 % of control | [9] 102 % of control and 103 % of control | [11] 103 % of control and 111 % of control | [13] 113 % of control

O=C(CCCCCCCCC(=O)c1ccc2ccccc2c1O)c1ccc2ccccc2c1O
inactive: dose: 100.0 mg/kg/injection, schedule: Q01DX001 (ip), vehicle: Klucel (hydroxypropylcellulose) (HPC) 87 % of control | [17] 94 % of control | dose: 200.0 mg/kg/injection, schedule: Q01DX001 (ip), vehicle: Klucel (hydroxypropylcellulose) (HPC) 89 % of control | [10] 91 % of control | dose: 400.0 mg/kg/injection, schedule: Q01DX001 (ip), vehicle: Klucel (hydroxypropylcellulose) (HPC) 105 % of control | [12] 96 % of control

CS(=O)CCCC(=O)O (stereo unspecified)
inactive: [15] 102 % of control | [16] 94 % of control | dose: 400.0 mg/kg/injection, schedule: Q01DX001 (ip), vehicle: saline with Tween-80 97 % of control
